Counter-ions that a name gives are not always drawn. Like-named read-outs stand apart in the source and are kept apart here.
Target: Full length SHP2 protein (Recombinant Human SHP-2) (Homo sapiens (Human), UniProt Q06124)
Test: SHP2 biochemical assay (DiFMUP substrate, activating peptide IRSI_2pY)
Details: activating peptide IRSI_2pY 140 nM, DiFMUP, 60 min
[1] = read-out: SHP-2 biochemical assay IC50
[2] = SHP-2 biochemical assay IC50 (μM)

Full length SHP2 protein (Recombinant Human SHP-2), sequence (Q06124 2-593): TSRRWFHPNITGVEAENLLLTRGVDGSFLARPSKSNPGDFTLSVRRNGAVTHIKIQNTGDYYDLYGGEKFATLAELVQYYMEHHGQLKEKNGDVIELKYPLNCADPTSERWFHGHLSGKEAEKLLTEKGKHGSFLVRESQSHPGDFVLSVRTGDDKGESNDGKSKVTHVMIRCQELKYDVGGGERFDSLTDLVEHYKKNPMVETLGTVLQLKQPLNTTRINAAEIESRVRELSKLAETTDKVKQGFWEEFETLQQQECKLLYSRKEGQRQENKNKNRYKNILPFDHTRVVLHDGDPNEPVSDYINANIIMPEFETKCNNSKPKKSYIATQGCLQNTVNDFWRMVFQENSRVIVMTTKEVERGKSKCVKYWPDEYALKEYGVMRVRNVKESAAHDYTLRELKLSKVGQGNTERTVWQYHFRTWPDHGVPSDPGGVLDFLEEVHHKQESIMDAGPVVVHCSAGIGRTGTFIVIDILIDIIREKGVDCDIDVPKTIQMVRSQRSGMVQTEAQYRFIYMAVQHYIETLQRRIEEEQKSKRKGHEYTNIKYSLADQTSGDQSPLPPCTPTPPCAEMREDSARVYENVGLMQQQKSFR
Procedure: The inhibition of SHP2 by compounds of the invention was monitored using the surrogate substrate DiFMUP after protein activation by a peptide bearing two appropriately spaced phosphotyrosine. […] The generation of the DiFMU product by activated SHP2 was monitored through Fluorescence measurement with a PerkinElmer Envision reader. The inhibitor dose response curves were analyzed with Genedata Screener.

| IC50 [1] | SMILES | IC50 [2] |
| --- | --- | --- |
| 2.1 µM | Cc1nc(N2CCC(N)(C(N)=O)CC2)cc(=O)n1-c1cccc(Cl)c1Cl [Compound 22, 4-amino-1-[1-(2,3-dichlorophenyl)-2-methyl-6-oxo-1,6-dihydropyrimidin-4-yl]piperidine-4-carboxamide] |  |
| > 10 µM | Cc1c(N2CCC(C)(CN)CC2)nc(C)n(-c2ccc3nccnc3c2)c1=O [Compound 55, 6-(4-Aminomethyl-4-methyl-piperidin-1-yl)-2,5-dimethyl-3-quinoxalin-6-yl-3H-pyrimidin-4-one] |  |
|  | Cc1nc(N2CCC(C)([C@H](O)CN)CC2)cc(=O)n1-c1cccc(Cl)c1Cl (racemic) [Compound 57a, (+/−)-(3M)-6-{4-[(1S)-2-amino-1-hydroxyethyl]-4-methylpiperidin-1-yl}-3-(2,3-dichlorophenyl)-2-methyl-3,4-dihydropyrimidin-4-one] | > 10 µM |
| 3 µM | CC1(CN)CCN(c2cc(=O)n(-c3cccc(Cl)c3Cl)c(C(F)F)n2)CC1 [Compound 17, 6-[4-(aminomethyl)-4-methylpiperidin-1-yl]-3-(2,3-dichlorophenyl)-2-(difluoromethyl)-3,4-dihydropyrimidin-4-one] |  |
|  | [2H]C([2H])([2H])c1c(N2CCC(C)(N)CC2)nc(C)n(-c2cccc(Cl)c2Cl)c1=O [Compound 94, 6-(4-amino-4-methylpiperidin-1-yl)-3-(2,3-dichlorophenyl)-5-(D3)methyl-2-methyl-3,4-dihydropyrimidin-4-one] | 1.4 µM |
| 2.5 µM | Cc1nc(N2CCC(NC[C@@H](O)CO)CC2)cc(=O)n1-c1cccc(Cl)c1Cl [Compound 41, 3-(2,3-dichlorophenyl)-6-(4-{[(2R)-2,3-dihydroxypropyl]-amino}piperidin-1-yl)-2-methyl-3,4-dihydropyrimidin-4-one] |  |
|  | COc1c(N2CCC3(CC2)CO[C@@H](C)[C@H]3N)nc(C)n(-c2cccc(Cl)c2Cl)c1=O (single isomer, unassigned) [Compound 73b] | 0.91 µM |
| 4 µM | Cc1nc(N2C[C@H]3COCC[C@@]3(CN)C2)cc(=O)n1-c1cccc(Cl)c1Cl (racemic) [Compound 19, (+/−)-6-[(3aS,7aR)-7a-(aminomethyl)-octahydropyrano[3,4-c]pyrrol-2-yl]-3-(2,3-dichlorophenyl)-2-methyl-3,4-dihydropyrimidin-4-one] |  |
| 2 µM | Cc1c(N2CCCC(CN)CC2)nc(C)n(-c2cccc(Cl)c2Cl)c1=O (stereo not drawn) [Compound 91, 6-[4-(aminomethyl)azepan-1-yl]-3-(2,3-dichlorophenyl)-2,5-dimethyl-3,4-dihydropyrimidin-4-one] |  |
| 0.59 µM | Cc1c(N2CCC3(CC2)CO[C@@H](C)[C@H]3N)nc(C)n(-c2ccc3ccccc3c2Cl)c1=O [Compound 52, 6-((3S,4S)-4-Amino-3-methyl-2-oxa-8-aza-spiro[4.5]dec-8-yl)-3-(1-chloro-naphthalen-2-yl)-2,5-dimethyl-3H-pyrimidin-4-one] |  |
|  | Cc1nc(N2CC[C@@H](N)[C@@H](O)C2)cc(=O)n1-c1cccc(Cl)c1Cl (racemic) [Compound 30, (+/−)-6-[(3S,4R)-4-amino-3-hydroxypiperidin-1-yl]-3-(2,3-dichlorophenyl)-2-methyl-3,4-dihydropyrimidin-4-one] | 13 µM |
| 1.6 µM | Cc1nc(N2CCCC(C)(N)CC2)cc(=O)n1-c1cccc(Cl)c1Cl (stereo not drawn) [Compound 21, 6-(4-amino-4-methylazepan-1-yl)-3-(2,3-dichlorophenyl)-2-methyl-3,4-dihydropyrimidin-4-one hydrochloride] |  |
| 3.8 µM | Cc1c(N2CCCC(N)(CC(C)O)CC2)nc(C)n(-c2cccc(Cl)c2Cl)c1=O (stereo not drawn) [Compound 115, (3M)-6-[4-amino-4-(2-hydroxypropyl)azepan-1-yl]-3-(2,3-dichlorophenyl)-2,5-dimethyl-3,4-dihydropyrimidin-4-one] |  |
| 5 µM | CCc1c(N2CCC3(CC2)CO[C@@H](C)[C@H]3N)nc(C)n(-c2cccc(Cl)c2Cl)c1=O [Compound 36, 6-[(3S,4S)-4-amino-3-methyl-2-oxa-8-azaspiro[4.5]decan-8-yl]-3-(2,3-dichlorophenyl)-5-ethyl-2-methyl-3,4-dihydropyrimidin-4-one] |  |
|  | Cc1nc(C2=CC[C@@](C)(N)CC2)cc(=O)n1-c1cccc(Cl)c1Cl (racemic) [Compound 6b, (+/−)-(3P)-6-[(4S)-4-amino-4-methylcyclohex-1-en-1-yl]-3-(2,3-dichlorophenyl)-2-methyl-3,4-dihydropyrimidin-4-one] | > 10 µM |
| 5.8 µM | Cc1c(N2CCN3CC(N)CC3C2)nc(C)n(-c2cccc(Cl)c2Cl)c1=O (stereo not drawn) [Compound 100, (3M)-6-7-amino-octahydropyrrolo[1,2-a]pyrazin-2-yl-3-(2,3-dichlorophenyl)-2,5-dimethyl-3,4-dihydropyrimidin-4-one] |  |

| IC50 [1] | SMILES | IC50 [2] |
| --- | --- | --- |
|  | Cc1nc(N2CCC(C)(N3CC[C@H](O)C3)CC2)cc(=O)n1-c1cccc(Cl)c1Cl (racemic) [Compound 72b, (+/−)-(3M)-3-(2,3-dichlorophenyl)-6-{4-[(3R)-3-hydroxy-pyrrolidin-1-yl]-4-methylpiperidin-1-yl}-2-methyl-3,4-dihydropyrimidin-4-one] | 6.4 µM |
| 18 µM | Cc1c(N2CCC(C)(N)CC2)nc(C)n(-c2ccc3ccccc3c2Cl)c1=O [Compound 48, 6-(4-Amino-4-methyl-piperidin-1-yl)-3-(1-chloro-naphthalen-2-yl)-2,5-dimethyl-3H-pyrimidin-4-one] |  |
| > 10 µM | Cc1c(N2CCC3(CC2)CO[C@@H](C)[C@H]3N)nc(C)n(-c2cccc3ncsc23)c1=O [Compound 84, 6-((3S,4S)-4-Amino-3-methyl-2-oxa-8-aza-spiro[4.5]dec-8-yl)-3-benzothiazol-7-yl-2,5-dimethyl-3H-pyrimidin-4-one] |  |
|  | Cc1nc(N2CCC[C@](N)(CC(F)F)CC2)cc(=O)n1-c1cccc(Cl)c1Cl (racemic) [Compound 58b, (+/−)-(3P)-6-4-[(1R)-4-amino-4-(2,2-difluoroethyl)-azepan-1-yl]-3-(2,3-dichlorophenyl)-2-methyl-3,4-dihydropyrimidin-4-one] | 1.3 µM |
|  | Cc1nc(N2CCC3(CC2)CO[C@@H](C)[C@H]3N)cc(=O)n1-c1c(F)ccc(Cl)c1Cl (single isomer, unassigned) [Compound 32b] | 1.9 µM |
| 1.1 µM | Nc1nc(N2CCC3(CC2)CC(F)(F)C[C@H]3N)cc(=O)n1-c1cccc(Cl)c1Cl [Compound 8, 2-amino-6-[(1R)-1-amino-3,3-difluoro-8-azaspiro[4.5]decan-8-yl]-3-(2,3-dichlorophenyl)-3,4-dihydropyrimidin-4-one] |  |
|  | Cc1c(N2CCC3(CC2)Oc2ccccc2[C@H]3N)nc(C)n(-c2cccc(Cl)c2Cl)c1=O (single isomer, unassigned) [Compound 81a] | 0.47 µM |
| 4.8 µM | Cc1nc(N2CCC3(CC2)CO[C@@H](C)[C@H]3N)cc(=O)n1-c1ccccc1 [Compound 7, 6-[(3S,4S)-4-amino-3-methyl-2-oxa-8-azaspiro[4.5]decan-8-yl]-2-methyl-3-phenyl-3,4-dihydropyrimidin-4-one] |  |
| > 10 µM | Cc1c(N2CCC(C)(N)CC2)nc(C)n(-c2cccc3ncsc23)c1=O [Compound 43, 6-(4-Amino-4-methyl-piperidin-1-yl)-3-benzothiazol-7-yl-2,5-dimethyl-3H-pyrimidin-4-one] |  |
| > 10 µM | Cc1c(N2CCC(C)(N)CC2)nc(C)n(-c2ccc3ccccc3c2)c1=O [Compound 39, 6-(4-Amino-4-methyl-piperidin-1-yl)-2,5-dimethyl-3-naphthalen-2-yl-3H-pyrimidin-4-one] |  |
| 2.6 µM | Cc1nc(N2C[C@H]3CC(O)C[C@@]3(CN)C2)cc(=O)n1-c1cccc(Cl)c1Cl (stereo partly drawn) [Compound 59, 6-[(3aR,6aS)-3a-(aminomethyl)-5-hydroxy-octahydrocyclopenta[c]pyrrol-2-yl]-3-(2,3-dichlorophenyl)-2-methyl-3,4-dihydropyrimidin-4-one] |  |
| 1.2 µM | Cc1c(N2CCC3(CC2)CO[C@@H](C)[C@H]3N)nc(C)n(-c2ccc3ccccc3c2)c1=O [Compound 45, 6-((3S,4S)-4-Amino-3-methyl-2-oxa-8-aza-spiro[4.5]dec-8-yl)-2,5-dimethyl-3-naphthalen-2-yl-3H-pyrimidin-4-one] |  |
| > 10 µM | Cc1nc(N2CCC3(CC2)CO[C@@H](C)[C@H]3N)c(C(C)C)c(=O)n1-c1cccc(Cl)c1Cl (atropisomer, axis not shown) [Compound 49a, (3P)-6-[(3S,4S)-4-amino-3-methyl-2-oxa-8-azaspiro[4.5]decan-8-yl]-3-(2,3-dichlorophenyl)-2-methyl-5-(propan-2-yl)-3,4-dihydropyrimidin-4-one] |  |
| 16 µM | Cc1nc(C2=CCC(C)(CN)CC2)cc(=O)n1-c1cccc(Cl)c1Cl (stereo not drawn) [Compound 9, 6-[4-(aminomethyl)-4-methylcyclohex-1-en-1-yl]-3-(2,3-dichlorophenyl)-2-methyl-3,4-dihydropyrimidin-4-one] |  |
|  | Cc1nc(C2=CC[C@@](C)(N)CC2)cc(=O)n1-c1cccc(Cl)c1Cl (racemic) [Compound 6a, (+/−)-(3M)-6-[(4S)-4-amino-4-methylcyclohex-1-en-1-yl]-3-(2,3-dichlorophenyl)-2-methyl-3,4-dihydropyrimidin-4-one] | 19 µM |

| SMILES | IC50 [1] | IC50 [2] |
| --- | --- | --- |
| Cc1c(N2CCC(C)(N)CC2)nc(C)n(-c2cccc(Cl)c2Cl)c1=O [Compound 12, 6-(4-amino-4-methylpiperidin-1-yl)-3-(2,3-dichlorophenyl)-2,5-dimethyl-3,4-dihydropyrimidin-4-one] | 1 µM |  |
| COc1c(N2CCC3(CC2)CO[C@@H](C)[C@H]3N)nc(C)n(-c2cccc(Cl)c2Cl)c1=O (single isomer, unassigned) [Compound 73a] | > 10 µM |  |
| Cc1nc(N2CCC3(CC2)CO[C@@H](C)[C@H]3N)cc(=O)n1-c1c(F)ccc(Cl)c1Cl (single isomer, unassigned) [Compound 32a] | > 10 µM |  |
| Cc1c(N2CCC3(CC2)CO[C@@H](C)[C@H]3N)nc(C)n(-c2cccc(Cl)c2Cl)c1=O (single isomer, unassigned) [Compound 23a] | 3.4 µM |  |
| Cc1c(N2CCC3(CC2)Oc2cnccc2C3N)nc(C)n(-c2cccc(Cl)c2Cl)c1=O (single isomer, unassigned) [Compound 80c] | 0.005 µM |  |

— patent US11001561B2, “Pyrimidinone derivatives as SHP2 antagonists” (MERCK PATENT GMBH, priority 2019, dated 2021)
